Experiment [1] deals with Mus musculus. Description: Ability to inhibit pentylenetetrazole (PTZ) induced convulsions n mice after peroral administration at 125 mg/Kg; Range is between (2.70-7.09). The experiment is classed as functional. The note with it: po.
For experiment [2], the target named is GABA-A receptor; anion channel. Briefly: Displacement of [3H]-diazepam from GABA-A benzodiazepine receptor of rat cerebral cortex. In kind it is tissue-based.
Experiment [3] relates to Mus musculus. Description: Ability to inhibit pentylenetetrazole (PTZ) induced convulsions in mice after peroral administration at 90 mg/Kg. The experiment is classed as functional. To be noted: po.
Experiment [4] has as its system Mus musculus. Description: Ability to inhibit pentylenetetrazole (PTZ) induced convulsions in mice after peroral administration at 75 mg/Kg; […]. The experiment is classed as functional. The note with it: po.
Experiment [5] deals with Mus musculus. Description: Ability to facilitate pentylenetetrazole (PTZ) induced convulsions in mice after intravenously administration at 90 mg/Kg; Range is between (0.27-0.71). In kind it is functional. To be noted: iv.
Experiment [6] relates to Mus musculus. Description: Ability to facilitate pentylenetetrazole (PTZ) induced convulsions in mice after peroral administration at 50 mg/Kg. The experiment is classed as functional. The note with it: po.
The subject of experiment [7] is Mus musculus. Description: Ability to inhibit pentylenetetrazole (PTZ) induced convulsions in mice after intravenously administration at 75 mg/Kg; Range is between (0.62-1.62). In kind it is functional. The note with it: iv.
Experiment [8] concerns Mus musculus. Briefly: Ability to facilitate pentylenetetrazole (PTZ) induced convulsions in mice after intravenously administration at 90 mg/Kg; Range is between (0.24-0.40). The experiment is classed as functional. To be noted: iv.
The subject of experiment [9] is Mus musculus. Briefly: Ability to inhibit pentylenetetrazole (PTZ) induced convulsions in mice after intravenous administration at 75 mg/Kg; Range is between (0.34-0.73). The experiment is classed as functional.
Experiment [10] deals with Mus musculus. Description: Ability to facilitate pentylenetetrazole (PTZ) induced convulsions n mice after peroral administration at 90 mg/Kg; Range is between (5.43-33.74). The experiment is classed as functional. The note with it: po.
For experiment [11], the system named is Mus musculus. Briefly: Ability to facilitate pentylenetetrazole (PTZ) induced convulsions n mice after intravenous administration at 90 mg/Kg; Range is between (0.09-0.50). In kind it is functional.
For experiment [12], the species on record is Mus musculus. Briefly: animal or person. The note with it: po.

Regarding `Cc1ccc(-n2[nH]c3c(cnc4ccccc43)c2=O)s1`, in [1], the ED50 was found to be 4.59 mg/kg. In [2], this molecule returned a Ki of 0.32 nM.

`Cc1cc(-n2[nH]c3c(cnc4ccccc43)c2=O)cs1`: the ED50 in [3] worked out at 0.92 mg/kg; in [4] it was 1.67 mg/kg. This molecule also returned a Ki in experiment [2] of 0.316 nM.

On to `CCOC(=O)c1cc2c(cn1)[nH]c1ccccc12`, for which the ED50 in [5] stood at 0.46 mg/kg; in [6], 37.5 mg/kg; in [7] it was 1 mg/kg.

On to `COC(=O)c1cc2c(cn1)[nH]c1ccccc12` [BETA-CCM], for which the results for the ED50 in [8] and in [9] were 0.29 mg/kg and 0.49 mg/kg, respectively. In experiment [2], this molecule had a Ki of 1.47 nM.

As for `O=C1C2C=Nc3ccccc3C2=NN1c1ccccc1` (centres undefined) [CGS-8216], the ED50 in experiment [10] is 12.8 mg/kg; in [11] it was 0.2 mg/kg.

Regarding `CN1C(=O)CN=C(c2ccccc2)c2cc(Cl)ccc21` [DIAZEPAM], in experiment [12], the 50% effect level (ED50) was put at a dose of 0.67 mg/kg.
